Literature values as cited in patent publication US10111869B2, “Reduction of opioid blood fluctuations” (priority 2009, dated 2018).

Conditions: in vivo

COc1ccc2c3c1O[C@H]1C(=O)CC[C@@]4(O)[C@@H](C2)N(C)CC[C@]314 [Oxycodone]
analgesic potency relative to morphine: about twice
